{
  "source": "patent US20070122908A1",
  "about": "“Molecular Delivery to Cells Using Aspirin-Related Compounds” (UNIVERSITY OF SOUTH FLORIDA, priority 2005, published 2007)",
  "key": {"[1]": {"test_system": "B16-F10 cells", "test": "Delivery of calcein to B16-F10 cells with or without electroporation, spectrofluorometric reading of cell lysate", "format": "cell-based, mouse", "method": "The effects of salicylic acid (“SA”) on the delivery of calcein to B16-F10 cells using electroporation was studied. Three identical experiments were carried out. […] All cells were exposed to 120 μM calcein. In addition, cells in some samples were exposed to one of three different concentrations of salicyclic acid (1 mM, 5 mM, or 10 mM) with pH values of 6.70, 6.32, and 3.85, respectively. Pulses with one of four different field strengths were also applied (500, 750, 1000, or 1385 V/cm) to certain samples. Salicyclic acid concentration and field strength were experimental variables; however, some cells were not exposed to applied fields or salicyclic acid for comparison/control purposes.\nDelivery of calcein using aspirin (acetylsalicylic acid or “ASA”) was studied. […] The same range of pulsing conditions was used and the variables were identical for the sample treatment.\nCalcein delivery by electroporation using acetic acid (“AA”) as an effector was studied. The set of 3 replicate experiments included three concentrations of AA, each with a different pH (4.40, 5.36, or 6.42). The pH values of the three solutions of acetic acid were matched to those of ASA for the purpose of determining if AA is the derivative in ASA that enhances the delivery of calcein. The three concentrations of the AA solutions in PBS were similar, which was about 0.15%, and varied slightly in order to establish the desired pH value. In addition, one of three electric field strengths were applied to cells (500, 750. or 1000 V/cm). Some cells were not exposed to applied fields or any concentration of AA for purposes of comparison and control.\nB16-F10 mouse melanoma cells (ATCC#:CRL-6475) were obtained and grown in McCoy's Media (Cellgro Mediatech, Inc., Herndon. VA), adjusted to contain 10% fetal bovine serum (Cellgro Mediatech, Inc.) and (25 mg) gentamicin 50 mg/mL (Mediatech, Inc.) and were incubated in 5% CO2 at 37° C. Serum was essential for many reasons. It provided hormonal factors that stimulated cell growth and function. It also contains essential proteins, amino acids, minerals, and lipids. Gentamicin is an antibiotic used as a preventative measure to help reduce microbial growth and contamination.\nCells were prepared for experiments by first harvesting by trypsinization and then washing 3 times by centrifugation. Cells were centrifuged (5810R, Eppendorf, Westbury, N.Y.) at 220× g for 5 minutes at 37° C. and resuspended in approximately 2.5 ml of PBS for each wash. A sample of cells was then diluted in 0.9% sodium chloride (APP, Schaumburg, Ill.) and 0.4% trypan blue stain (Cellgro Mediatech, Inc.). Trypan blue is an indicator in which the membranes of non-viable cells are penetrated and can be distinguished from the viable cells. Using a hemacytometer (Hausser Scientific, Horsham, Pa.), the viable and nonviable cells were counted. The number of cells per milliliter was computed by multiplying the number of cells counted per square millimeter×the dilution (when used)×10,000 (conversion factor).\nExperiments were conducted using 48-well polystyrene tissue culture plates (BD Falcon. Franklin Lakes, N.J.). Each well held approximately 1.4 ml of liquid with a surface area of 0.75 cm^2. The depth and diameter of each well was 18 mm and 10 mm, respectively.\nUnder aseptic conditions, 150μl of the sterile gelatin solution was added to each well and let stand for 1 hour. The gelatin was then aspirated from each of the wells and air dried for 5 minutes. 500μl of McCoy's Media was added to the treated wells in addition to 7.5×10^4 viable cells and incubated at 37° C. for 18 hours before treatment.\nThe electrode shown in FIG. 2 was specially designed for all experimentation in these studies and was similar to the design mentioned above. The electrode consisted of 6 stainless steel electrodes, equally spaced at 60° intervals around a 0.7 cm diameter circle."}, "[2]": {"test_system": "B16-F10 cells", "conditions": "mouse, pH 4.4", "protocol": "The trypan blue test was used to determine membrane integrity. Trypan blue dye will only penetrate into cells that have porous membranes. […] The protocol used was similar to the methods described for the delivery of calcein. After one hour of exposure at 37° the cells were washed three times with 500 μl aliquots of PBS. Liquid from the last wash was carefully aspirated, and then filled with 500μl of growth media.\nFor the purpose of this study, optimal testing conditions were used to treat B16-F10 cells to conclude the extent of reversible permeation.\nDue to the large surface area of the wells, the cells were physically counted by observing 7 out of 21 fields of view along the horizontal diameter of each well at a magnification of 400× (see FIG. 5). The recovery of the membranes after exposure to each treating condition was expressed as a percentage of live cells remaining after each hour.\nIn order to distinguish the viable cells from the dead, a 0.4% trypan blue solution in PBS was used. 150 μl of the solution was added to each well for 1 minute, and then the cells were counted using the described method. Each test condition was studied at 1 hour intervals ranging from 1 hour to 4 hours. In addition, membrane recovery was examined 24 hours post treatment."}},
  "data": [
    {"smiles": "O=C(O)c1ccccc1O", "note": "[SA, salicylic acid]", "values": [
      {"measurement": "calcein delivery compared to samples exposed to calcein alone", "setting": "[1]; 1, 5 or 10 mM SA (pH 6.70, 6.32, 3.85), 120 μM calcein, no applied electric field", "value": "did not augment the delivery"},
      {"measurement": "fluorescent magnitude compared to samples treated with calcein and pulses (no salicylic acid)", "setting": "[1]; 1, 5 or 10 mM SA, 120 μM calcein, electrical pulses 500-1385 V/cm", "value": "not significantly higher"}
    ]},
    {"smiles": "CC(=O)Oc1ccccc1C(=O)O", "note": "[ASA, acetylsalicylic acid]", "values": [
      {"measurement": "fluorescence magnitude compared to calcein alone (no ASA)", "setting": "[1]; 1 mM or 5 mM ASA alone (pH 6.39, 5.40), no pulses", "value": "did not result in a significant increase"},
      {"measurement": "increase in fluorescence magnitude relative to calcein at same field (no ASA)", "setting": "[1]; 10 mM ASA, 500 V/cm, p<0.0001", "value": 3.7, "unit": "fold"},
      {"measurement": "increase in fluorescence magnitude relative to calcein at same field (no ASA)", "setting": "[1]; 10 mM ASA, 750 V/cm, p 0.0011", "value": 3.82, "unit": "fold"},
      {"measurement": "increase in fluorescence magnitude relative to calcein at same field (no ASA)", "setting": "[1]; 10 mM ASA, 1000 V/cm, p 0.0014", "value": 3.57, "unit": "fold"},
      {"measurement": "increase in fluorescence magnitude relative to calcein at same field (no ASA)", "setting": "[1]; 10 mM ASA, 1385 V/cm, p 0.0066", "value": 3.18, "unit": "fold"},
      {"measurement": "increase in internalized calcein vs control (calcein, no ASA or pulses)", "setting": "[1]; 10 mM ASA, no pulses, p<0.0001", "value": 5, "unit": "fold"},
      {"measurement": "mean fluorescence magnitude compared to samples exposed to electric fields alone (no ASA)", "setting": "[1]; 1 and 5 mM ASA, with electric fields", "value": "not significantly different"},
      {"measurement": "average fluorescent magnitude", "setting": "[1]; calcein in 10 mM ASA (pH 4.40), no pulses", "value": "4.28 (SEM=0.63)"}
    ]},
    {"smiles": "CC(=O)O", "note": "[AA, acetic acid]", "values": [
      {"measurement": "fluorescence magnitude compared to samples not exposed to AA", "setting": "[1]; AA about 0.15% in PBS, pH 5.36 or 6.42, with or without pulses", "value": "failed to show a significant increase"},
      {"measurement": "fluorescent data compared to AA alone (no pulses)", "setting": "[1]; AA lowest pH solution (pH 4.40) in combination with electric fields", "value": "even higher"},
      {"measurement": "mean fluorescence magnitude", "setting": "[1]; AA pH 4.40, 500 V/cm", "value": 12.77},
      {"measurement": "increase in fluorescence magnitude vs samples not exposed to AA at same field", "setting": "[1]; AA pH 4.40, 500 V/cm, p<0.0001", "value": 3, "unit": "fold"},
      {"measurement": "increase in fluorescence magnitude vs samples not exposed to AA at same field", "setting": "[1]; AA pH 4.40, 750 V/cm, p=0.0002", "value": 2.25, "unit": "fold"},
      {"measurement": "increase in fluorescence magnitude vs samples not exposed to AA at same field", "setting": "[1]; AA pH 4.40, 1000 V/cm, p<0.0001", "value": 3.5, "unit": "fold"},
      {"measurement": "increase in mean fluorescence vs control (no AA or pulses)", "setting": "[1]; AA pH 4.40 alone, no pulses", "value": 8.2, "unit": "fold"},
      {"measurement": "mean fluorescence magnitude", "setting": "[1]; AA pH 4.40 alone, no pulses", "value": 1.04},
      {"measurement": "decline in the number of cells with intact membranes", "setting": "[2]; 1 h", "value": 17, "unit": "%"},
      {"measurement": "cells that excluded trypan blue dye", "setting": "[2]; 24 h", "value": 86, "unit": "%"},
      {"measurement": "cells with intact membranes", "setting": "[2]; 24 h", "value": 90, "unit": "%"},
      {"measurement": "average membrane integrity", "setting": "[2]", "value": "80-95%"}
    ]}
  ]
}
